Data taken from article PMC4279419, “Angiostatic, tumor inflammatory and anti-tumor effects of CXCL4^47–70 and CXCL4L1^47–70 in an EGF-dependent breast cancer model” (Oncotarget, 2014).
Where no end group is shown, it is not given here.

Experiments:
[1] = system: bovine aortic endothelial cells (GM7373); assay: GM7373 proliferation assay (cell counting); assay type: cell-based; settings: peptide 0.4 μg/ml, 0.4% FCS, 24 h, cell counts, mean ± s.e.m., n=3; for GM7373 proliferation relative to EGF alone (100%): EGF 10 ng/ml; for GM7373 proliferation relative to FGF2 alone (100%): FGF2 10 ng/ml
Protocol: Cell proliferation assays on GM7373 cells were performed as described. Briefly, subconfluent cultures of GM7373 cells were seeded in 96-well dishes at 65 × 10^3 cells/cm^2. After 16 h, cells were incubated in triplicate in fresh medium containing 0.4% FCS plus FGF1 (30 ng/ml), FGF2 (10 ng/ml), FGF8 (30 ng/ml), EGF (10 ng/ml), VEGF (30 ng/ml), 12-O-tetradecanoyl phorbol 13-acetate (TPA, 10 ng/ml) or 10% FCS in the absence or in the presence of 400 ng/ml of CXCL4^47–70 or CXCL4L1^47–70. After 24 h, cells were trypsinized and counted in a Bürker chamber. Data were expressed as percentages of cell proliferation measured in the presence of the mitogenic stimulus alone.

p21 in HMVEC = assay: Intracellular p21 content in HMVEC (ELISA); assay type: cell-based, human; settings: 15 h, mean ± s.e.m.
Protocol: Signaling assays were slightly adapted to the signaling molecules of interest in this study. HMVEC were stimulated with EGF (20 ng/ml) as a single stimulus or in combination with the peptides CXCL4^47–70 and CXCL4L1^47–70 (0.3 to 10 μg/ml) in order to evaluate their impact on the cell cycle-arresting p21. After 15 hours, the cells were washed three times with ice-cold PBS to stop the stimulation and lysis buffer [1 mM EDTA, 0.5% (v/v) Triton-X, 10 mM NaF, 150 mM NaCl, 1 mM DTT in PBS; pH 7.2–7.4] supplemented with a protease inhibitor cocktail (Sigma) was added. Cell residue was removed from the collected lysates by centrifugation (4°C, 10 min, 1666g). Lastly, the intracellular p21 content was determined by DuoSet® IC ELISA (cat n° DYC1047, R&D Systems) while, in parallel, total protein content was measured in a bicinchoninic acid (BCA) protein assay (Pierce, Rockford, IL).

MDA-MB-231 cells = assay: MDA-MB-231 MTT proliferation assay; assay type: cell-based, human; settings: control PI=1, DMEM + 1% FCS, 3 to 4 days, mean ± s.e.m.
Protocol: First, HMVEC and HLEC were seeded at 5 × 10^3 cells/well in EBM-2 + 1% FCS in a 96-well plate, whereas MDA-MB-231 were starved of growth factors overnight by replacing their growth medium with DMEM (serum-free) prior to seeding the tumor cells at 15 × 10^2 cells/well in DMEM + 1% FCS. As for the rest of the assay, the same protocol applies to all cells. Once adherent, cells were incubated with different concentrations of the peptides CXCL4^47–70 and CXCL4L1^47–70 as single stimuli or in combination with recombinant human EGF (3 ng/ml; R&D Systems, Minneapolis, MN) at 37°C/5% CO2. All conditions were tested in triplicate or quadruplicate. After 3 to 4 days, stimulation medium was removed and a sterile MTT solution was added [0.04 g/100 ml thiazolyl blue (Sigma-Aldrich, St. Louis, MO) in 20% PBS/80% RPMI without phenol red (Lonza)] for 3 to 4 hours. The formed formasan crystals were dissolved by replacing the MTT solution with acidic propanol (0.04 M HCl, 0.1% (v/v) Nondet P-40 in absolute isopropanol) and shaking the plate, shielded from light, for 10 minutes. Optical density (OD) was determined at 570 nm and 630 nm. The obtained ODs were processed to proliferation indexes (PI), expressed relative to appropriate buffer controls, i.e. ΔOD570–630X over ΔOD570–630CO.

[2] = system: MDA-MB-231 breast tumors in SCID mice; assay: MDA-MB-231 tumor growth in SCID mice; assay type: in vivo; settings: 2.5 μg intratumoral 3×/week from day 3, mean ± s.e.m., n=10; for tumor volume (external), day 11 / mean tumor volume (external), day 25: calipers; for tumor volume (external), day 11: vehicle 176 ± 56, p<0.001 (CXCL4^47–70), p=0.007 (CXCL4L1^47–70); for mean tumor volume (external), day 25: vehicle 1116 ± 149, p=0.121 (CXCL4L1^47–70); for mean tumor volume (external), day 25 / resected tumor mass, day 27 or 28: p=0.002 (CXCL4^47–70); for resected tumor volume, day 27 or 28: vehicle 845 ± 177, p=0.001 (CXCL4^47–70), p=0.256 (CXCL4L1^47–70); for resected tumor mass, day 27 or 28: vehicle 1464 ± 277, p=0.091 (CXCL4L1^47–70)
Protocol: SCID mice were bred in specific-pathogen-free conditions in the Experimental Animal Breeding Facility of the University of Leuven (KU Leuven) and fed sterilized food and water. All animal experiments were conducted in agreement with the Ethical Committee for Animal Care and Use of the KU Leuven and executed under license number LA1210243. 7- to 10-week-old SCID mice were used throughout the experiments. MDA-MB-231 cells in log growth phase (6 × 10^6 cells resuspended in 200 μl of PBS) were injected subcutaneously (s.c.) on day 0 in the right dorsal flank. Animals were treated by intratumoral injection with control, 2.5 μg synthetic human CXCL4^47–70 peptide or synthetic human CXCL4L1^47–70 peptide three times a week starting from day 3. The external tumor volume was measured with calipers thrice a week and calculated using the formula (4πab2)/3 in which a and b are the largest and smallest radius, respectively. On day 27 or 28, mice were sacrificed and tumors were resected. The exact tumor volume of the resected tumor, based on three measured radii (a, b and c), was calculated by the formula (4πabc)/3. A portion of the tumors was stored at −70°C for generation of mRNA extracts and another part was processed for flow cytometry.

CHO/CXCR3A cells = assay: CXCR3A binding (flow cytometry); settings: NH2-terminally biotinylated peptides, 3 to 3000 ng/ml, data not shown
From the text: We further tried to reveal the mode of action of CXCL4^47–70 and CXCL4L1^47–70. First, we excluded that either peptide still binds/activates one of the CXCR3 isoforms, the receptors for intact CXCL4 and CXCL4L1.

[3] = peptide 3 μg/ml + EGF 20 ng/ml, n=9, p=0.039 (CXCL4^47–70), n=5, p=0.033 (CXCL4L1^47–70) versus EGF
[4] = peptide 3 μg/ml, n=7 in triplicate, p<0.001
[5] = peptide 10 μg/ml, in triplicate, n=3, p<0.001 (CXCL4^47–70), n=7, p=0.01 (CXCL4L1^47–70)

Substance	GM7373 proliferation relative to EGF alone (100%) [1] [%]	GM7373 proliferation relative to FGF2 alone (100%) [1] [%]	intracellular p21 relative to control (100%), with EGF (p21 in HMVEC; [3]) [%]	Proliferation index (PI) (MDA-MB-231 cells; [4])	Proliferation index (PI) (MDA-MB-231 cells; [5])	Proliferation index (PI) (MDA-MB-231 cells; peptide 30 μg/ml, n=3 in triplicate, p<0.001)	tumor volume (external), day 11 [2] [mm^3]	mean tumor volume (external), day 25 [2] [mm^3]	resected tumor volume, day 27 or 28 [2] [mm^3]	resected tumor mass, day 27 or 28 [2] [mg]	specific binding to CHO/CXCR3A (CHO/CXCR3A cells)	intracellular p21 relative to control (100%), with EGF (p21 in HMVEC; peptide 1 μg/ml + EGF 20 ng/ml, n=6, p=0.039 versus EGF) [%]	intracellular p21 relative to control (100%), with EGF (p21 in HMVEC; peptide 10 μg/ml + EGF 20 ng/ml, n=5, p=0.005 versus EGF) [%]	Proliferation index (PI) (MDA-MB-231 cells; peptide 0.3 μg/ml, n=7 in triplicate, p=0.023)
CXCL4L1^47–70: synthetic human carboxy-terminal peptide restricted to the last 24 amino acids of CXCL4L1, Fmoc chemistry	49 ± 1	47 ± 4	115.06 ± 17.41	0.78 ± 0.04	0.76 ± 0.08	0.26 ± 0.04	61 ± 23	719 ± 153	647 ± 161	953 ± 208	could not detect specific binding	–	–	–
CXCL4^47–70: synthetic human carboxy-terminal peptide restricted to the last 24 amino acids of CXCL4, Fmoc chemistry (NGRKICLDLQAPLYKKIIKKLLES; not fully specified (N-terminus))	74 ± 3	28 ± 10	100.02 ± 8.67	0.66 ± 0.04	0.21 ± 0.05	–	24 ± 6	438 ± 97	308 ± 61	523 ± 108	could not detect specific binding	106.90 ± 15.12	125.51 ± 15.05	0.87 ± 0.04
